ChEMBL document CHEMBL1127938, “The first synthesis of a C-9 carbonyl modified baccatin III derivative and its conversion to novel taxol and taxotere analogues” (1994)

What was measured:
[1] = test system: B16; assay: Compound was tested in vitro inhibition of proliferation against B16 melanoma after a 40h incubation; type: functional, Mus musculus
[2] = In vitro concentration in […] which reduces the protein concentration by 50% in a microtubule assembly assay expressed as ED50/ED50 taxol; type: functional
[3] = test system: B16; assay: Compound was tested in vitro inhibition of proliferation against B16 melanoma after a 40h incubation relative to that of taxol (Taxol=1); type: functional, Mus musculus
[4] = In vitro concentration in […] which reduces the protein concentration by 50% in a microtubule assembly assay, relative to taxol (1) and expressed as ED50/ED50 taxol; type: functional

Compound | ED50 ratio [1] | ED50 ratio [2] | ED50 ratio [3] | ED50 ratio [4]
CC(=O)O[C@H]1C(=O)[C@@]2(C)[C@H]([C@H](OC(=O)c3ccccc3)[C@]3(O)C[C@H](OC(=O)[C@H](O)[C@@H](NC(=O)c4ccccc4)c4ccccc4)C(C)=C1C3(C)C)[C@]1(OC(C)=O)CO[C@@H]1C[C@@H]2O [PACLITAXEL] | 1 | 1 | – | –
CC(=O)O[C@@]12CO[C@@H]1C[C@H](O)[C@@]1(C)c3oc(=O)oc3C3=C(C)[C@@H](OC(=O)[C@H](O)[C@@H](NC(=O)OC(C)(C)C)c4ccccc4)C[C@@](O)([C@@H](OC(=O)c4ccccc4)C12)C3(C)C (stereo partly specified) | – | – | 16.4 | 0.5
CC(=O)O[C@@]12CO[C@@H]1C[C@H](O)[C@@]1(C)c3oc(=O)oc3C3=C(C)[C@@H](OC(=O)[C@H](O)[C@@H](NC(=O)c4ccccc4)c4ccccc4)C[C@@](O)([C@@H](OC(=O)c4ccccc4)C12)C3(C)C (stereo partly specified) | – | – | 34.5 | 2.4
